The source of these data is patent US11993573B2, “Chromane-substituted, tetrahydroquinoline-substituted and thiochromane-substituted heteroarotinoids as anti-cancer agents” (THE BOARD OF REGENTS FOR OKLAHOMA STATE UNIVERSITY, priority 2018, dated 2024).

Like-named read-outs stand apart in the source and are kept apart here.

The conditions of series [1]: SHetA2, background; cited from earlier work.
Series [2] concerns 60 cancer cell lines available from the National Cancer Institute. The settings on record: SHetA2, background; cited from earlier work.
For series [3], the system named is human ovarian cancer cell line A2780. The series can be described thus: Growth inhibition assay (CellTiter 96 Non-Rad Cell Proliferation Assay). The series is classed as cell-based. The settings on record: for IC50 / Emax: Homo sapiens; for IC50 compared with SHetA2 / efficacy compared with SHetA2: comparison in words; for IC50 compared with SHetA2: 'exceeded' = lower IC50 in Table 1. The procedure: To illustrate the general activity of the compounds inhibiting growth of human […] ovarian cancer cells, selected compounds were synthesized and evaluated. The compounds were dissolved in DMSO at a concentration of 0.01 M. The human ovarian cancer cell line A2780 was plated in 96-well tissue culture dishes at a concentration of 3000 cells per well in RPMI medium supplemented with 10% fetal bovine serum and a mixture of antibiotics and antimycotics. The next day, the cultures were treated in triplicate with compound concentrations ranging from 2 μM to 8 μM increments. For compound 12, additional experiments were performed with concentrations of 10 μM and a series of two-fold dilutions to 156 nM. Control cultures were treated with DMSO solvent only. After 72 h of incubation, the […] 96® Non-Rad Cell Proliferation Assay (Promega) was used to quantify the remaining metabolically living cells. After subtracting blank values, the optical density (OD) readouts of the assay for the treated cultures were normalized with the average OD of the control cultures. For each compound, the experiment was repeated at least once, resulting in a minimum of 6 dose-response curves. For SHetA2, 24 response curves were available for statistical fitting parameters. A custom program was written in GNU Octave, a free software compatible with Matlab, to fit the dose-response curves with a four-parameter sigmoid function, extracting the IC50 and efficacy (the maximal % growth inhibition) parameters.
To illustrate the useful biological activity of these chroman-substituted and tetrahydroquinoline-substituted heteroarotinoids, the compounds were screened against human […] ovarian cancer cells.

The mark [4] stands for this setting: A2780, 72 h, Table 1, chroman-containing series.
Setting [5] is: A2780, 72 h, Table 1, maximal % growth inhibition, A2780, 72 h, read-out: Efficacy.
Setting [6] is: A2780, 72 h, Table 2, tetrahydroquinoline-containing members.
[7] abbreviates: A2780, 72 h, Table 2, maximal % growth inhibition, A2780, 72 h, read-out: Efficacy.

What is called IC50 is the point on the concentration scale where inhibition reaches its midpoint. Higher therefore signals lower potency. For the compound `CC1(C)CC(C)(C)c2cc(NC(=S)Nc3ccc([N+](=O)[O-])cc3)ccc2S1` [SHetA2, reference compound], in series [1], the “birth defects in animal studies” value is on record as “does not cause birth defects”. Further, the skin irritation result in series [1] is “no skin irritation”. Besides, in series [1], the “toxicity toward normal tissues” value was “essentially no toxicity toward normal tissues”. In addition, the “growth inhibition of cancer cell lines” value in series [2] was “inhibits the growth of all 60 cancer cell lines”. The IC50 in series [3] (setting [4]) turned out to be 3.17 µM; in series [3] (setting [6]), 3.17 µM; in series [3] (A2780, Table 3, 14 series (thiochroman), A2780), 3.17 ± 0.1 µM; in series [3] (A2780, running text, A2780), 3 µM. Moreover, the Emax in series [3] (setting [5]) stood at 84.3%; in series [3] (setting [7]), 84.3%; in series [3] (A2780, Table 3, 14 series, A2780, read-out: % Efficacy) it was 84.3 ± 0.7%.
For orientation: melting point means the temperature, or range, at which the solid turns liquid. With `CC1(C)CCNc2ccc(NC(=S)Nc3ccc(OC(F)(F)F)cc3)cc21` [Compound 9d, 1-(4,4-Dimethyl-1,2,3,4-tetrahydroquinolin-6-yl)-3-(4-(trifluoromethoxy)phenyl)thiourea], the melting point was in the range of 69 to 71 °C. In series [3] (setting [6]), this compound registered a concentration for half-maximal inhibition (IC50) of 7.1 µM. In addition, the Emax in series [3] (setting [7]) amounted to 24%.
`CCC1(CC)CC(CC)(CC)c2cc(NC(=O)Nc3ccc(C(F)(F)F)cc3)ccc2O1` [Compound 8c, 1-(2,2,4,4-Tetraethylchroman-6-yl)-3-(4-(trifluoromethyl)phenyl)urea]: the melting point is 165 to 166 °C. In addition, the concentration for half-maximal inhibition (IC50) in series [3] (setting [4]) is 2 µM. Also, in series [3] (setting [5]), the Emax came out at 86.2%. The “IC50 compared with SHetA2” value in series [3] (A2780) was “exceeded”.
`CN1c2ccc(NC(=O)Nc3ccc([N+](=O)[O-])cc3)cc2C(C)(C)C(O)C1(C)C` (centres unmarked) [Compound 13a, 1-(3-Hydroxy-1,2,2,4,4-pentamethyl-1,2,3,4-tetrahydroquinolin-6-yl)-3-(4-nitrophenyl)urea]: the melting point is 215 to 217 °C. In addition, the IC50 in series [3] (setting [6]) was 8.4 µM. Moreover, the Emax in series [3] (setting [7]) is 26%.
Take `CC1(C)CC(C)(C)c2cc(NC(=O)Nc3ccc(C#N)cc3)ccc2O1` [Compound 3b, 1-(4-Cyanophenyl)-3-(2,2,4,4-tetramethylchroman-6-yl)urea]: the melting point lay in the range of 225 to 226 °C. Also, the “efficacy compared with SHetA2” value in series [3] (A2780) is given as “exceeded the efficacy of SHetA2”.
The compound `CC1(C)CCNc2ccc(NC(=S)Nc3ccc(C(F)(F)F)cc3)cc21` [Compound 9c, 1-(4,4-Dimethyl-1,2,3,4-tetrahydroquinolin-6-yl)-3-(4-(trifluoromethyl)phenyl)thiourea] showed a melting point of 104 to 105 °C. The compound also yielded an IC50 in series [3] (setting [6]) of 6 µM. Moreover, the Emax in series [3] (setting [7]) came to 42%.
In the case of `CN1c2ccc(NC(=S)Nc3ccc([N+](=O)[O-])cc3)cc2C(C)(C)CC1(C)C` [Compound 12, 3-(1,2,2,4,4-Pentamethyl-1,2,3,4-tetrahydroquinolin-6-yl)-1-(4-nitrophenyl)thiourea], the melting point fell in the range of 151 to 153 °C. This compound also returned an IC50 in series [3] (setting [6]) of 4.49 µM. Moreover, the Emax in series [3] (setting [7]) was 91.7%.
`CCC1(CC)CC(C)(C)Oc2ccc(NC(=S)Nc3ccc(C(F)(F)F)cc3)cc21` [Compound 7b, 1-(4,4-Diethyl-2,2-dimethylchroman-6-yl)-3-(4-(trifluoromethyl)phenyl)thiourea]: the melting point was in the range of 155 to 156 °C. Besides, the half-inhibitory concentration (IC50) in series [3] (setting [4]) worked out at 4.7 µM. Moreover, the Emax in series [3] (setting [5]) was 11.8%.
With `CN1c2ccc(NC(=O)Nc3ccc(C(F)(F)F)cc3)cc2C(C)(C)C(O)C1(C)C` (centres unmarked) [Compound 13c, 1-(3-Hydroxy-1,2,2,4,4-pentamethyl-1,2,3,4-tetrahydroquinolin-6-yl)-3-(4-(trifluoromethyl)phenyl)urea], the melting point fell in the range of 213 to 215 °C. In series [3] (setting [6]), the IC50 is 6.7 µM. For the same compound, in series [3] (setting [7]), the Emax was 25%.
In turn, `CCC1(CC)CC(C)(C)c2cc(NC(=O)Nc3ccc(C(F)(F)F)cc3)ccc2O1` [Compound 6c, 1-(2,2-Diethyl-4,4-dimethylchroman-6-yl)-3-(4-(trifluoromethyl)phenyl)urea] showed a melting point of 208 to 210 °C. In addition, in series [3] (setting [4]), the IC50 worked out at 2.45 µM. The Emax in series [3] (setting [5]) worked out at 92.4%. Further, in series [3] (A2780), the “efficacy compared with SHetA2” value is recorded as “exceeded the efficacy of SHetA2” and the “IC50 compared with SHetA2” value is recorded as “exceeded”.
As for `CCC1(CC)CC(CC)(CC)c2cc(NC(=O)Nc3ccc(OC(F)(F)F)cc3)ccc2O1` [Compound 8d, 1-(2,2,4,4-Tetraethylchroman-6-yl)-3-(4-(trifluoromethoxy)phenyl)urea], the melting point lay within 180 to 181 °C. In addition, the IC50 in series [3] (setting [4]) worked out at 3 µM. Moreover, in series [3] (setting [5]), the Emax amounted to 67%. For the same compound, the “IC50 compared with SHetA2” value in series [3] (A2780) is listed as “exceeded”.
For `CC1(C)CCNc2ccc(NC(=O)Nc3ccc([N+](=O)[O-])cc3)cc21` [Compound 9a, 1-(4,4-Dimethyl-1,2,3,4-tetrahydroquinolin-6-yl)-3-(4-nitrophenyl)urea], the melting point was 219 to 220 °C. Inhibition in series [3] (setting [6]) was half-maximal at 6.9 µM (IC50). Besides, the Emax in series [3] (setting [7]) was 17.1%.
In the same order, the values of `CN1c2ccc(NC(=O)Nc3ccc(OC(F)(F)F)cc3)cc2C(C)(C)C(=O)C1(C)C` [Compound 11e, 1-(1,2,2,4,4-Pentamethyl-3-oxo-1,2,3,4-tetrahydroquinolin-6-yl)-3-(4-(trifluoromethoxy)phenyl)urea] are 191 to 192 °C, 2.4 µM and 91.3%.
